The conditions of assay [1]: intake of alcohol while eating vs no alcohol; FIG. 10.
Description: The tip of index finger was gently wiped with a paper towel soaked with pure water. The bottom end of a microtube containing 50 μL of pure water was held with the thumb, with the upper opening of the microtube in contact with the tip of the index finger (see FIG. 1A). With the microtube held with the index finger and the thumb, the microtube was inverted to contact the pure water to the skin surface of the index finger for 1 minute.
Eleven subjects were allowed to eat the same food during the time period of from 12:00 to 13:00, and the epidermal fluid was collected at 12:00, 13:00, 14:00, 15:00, and 16:00.
Assay [2] deals with three-dimensional culture skin (Kurabo; EPI-200X). Description: Nicotinamide metabolites on the epidermis surface of cultured skin after adding cortisol to the culture solution. It counts as cell-based. The conditions noted are these: glucocorticoid (cortisol) 50 nM or 500 nM in culture solution, sample collected from epidermis side after 1 hour. How it is done: Assessment was made as to the ability of a cultured skin to secrete nicotinamide metabolites on the horny layer of epidermis surface in response to cortisol or glucose. A three-dimensional culture skin (Kurabo; EPI-200X) was cultured with its dermis side in contact with the culture solution. Glucocorticoid (cortisol) was added to the culture solution to make the final concentration 50 nM or 500 nM. After 1 hour, 150 μL of PBS was contacted to the epidermis side, and the sample was collected. The amounts of NAD+, NADH, NADP+, and NADPH in the sample were then measured using commercially available colorimetric analysis kits (Amplite Colorimetric NAD/NADH Assay Kit, Amplite Colorimetric NADP/NADPH Assay Kit; ABD Bioquest Inc.).

The structures appear in SMILES notation.

Turning to `CCO` [alcohol], the “transient increase in NAD+/NADH ratio in epidermal fluid” value in assay [1] was “more enhanced”.

On to `C[C@]12CCC(=O)C=C1CC[C@@H]1[C@@H]2[C@@H](O)C[C@@]2(C)[C@H]1CC[C@]2(O)C(=O)CO` [glucocorticoid, cortisol], for which the “NAD+/NADH ratio” value in assay [2] (FIG. 12A) is “increased concentration dependently”. Besides, the “NADP+/NADPH ratio” value in assay [2] (FIG. 12B) is reported as “no change”.

The record behind these values is patent US20120034641A1, “BIOLOGICAL INFORMATION ACQUISITION METHOD” (SONY CORPORATION, priority 2010, published 2012).
